Measurements published in the METLIN SMRT retention time set (Domingo-Almenara et al. 2019).

Assay: gradient 5% acetonitrile 3 min, to 50% in 2 min, to 85% in 15 min, held 3 min, 100 µL/min
Conditions: column: Zorbax Extend-C18 2.1 x 50 mm; eluents: water / acetonitrile, 0.1% formic acid
How it was run: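 Pure standards were run in mixtures of ~100 molecules by HPLC coupled to a quadrupole time-of-flight mass spectrometer. The column was a Zorbax Extend-C18 (2.1 × 50 mm, 1.8 μm) at 100 μL/min, with water and acetonitrile each containing 0.1% formic acid, in positive and negative ionization mode. Dead and dwell volumes were 40 μL and 900 μL. Retention time was taken from computationally picked adduct peaks, each manually inspected, with data collected over 3 months.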

Point of comparison: `COc1cc(NC(=O)c2c(S(=O)(=O)Nc3ccc(Cl)cc3)n[nH]c2C)cc(OC)c1`, RP-LC retention time 886 s. Against it:
- COc1cccc(C(=O)N2CCC3(CC2)c2nccn2-c2ccccc2CN3C)c1 — lower, 612 s
- CCC(=O)N1CCc2cc(N3CC(C(=O)Nc4cc(Cl)ccc4OC)CC3=O)ccc21 (centres undefined) — lower, 828 s
- CN1C(=O)c2cccn2CC1C(=O)NCc1nc2ccccc2n1C (centres undefined) — lower, 566 s
- Cc1ccc(-c2ccc(N3CCCC(C(=O)N4CCC(C)CC4)C3)nn2)cc1C (centres undefined) — lower, 792 s
- Cc1nnc(C2CCCN(C(=O)CCc3c(C)noc3C)C2)s1 (centres undefined) — lower, 606 s
- O=C(NCC1(CO)CC1)c1cc(-c2ccccc2)on1 — lower, 703 s
- Cc1nnc2c(=O)n(CC(=O)NCc3ccc(C(F)(F)F)cc3)c3cccnc3n12 — lower, 728 s
- Cc1cc(-c2nnc(-c3ccccc3)o2)c(C)n1CC(=O)NC1CCCC1 — the same, 886 s
- O=C1NCCCCCCN(C(=O)c2ccco2)[C@H]2C[C@H](C(=O)N3CCc4ccccc4C3)C[C@@H]12 — lower, 824 s
- Cc1ccn2c(Nc3ccc(Cl)cc3)c(-c3ccc(N4CCOCC4)cc3)nc2c1 — higher, 967 s
- COc1ccc(-c2noc(C3CCCN3C(=O)Cc3ccsc3)n2)cc1 (centres undefined) — higher, 928 s
- Cc1ccc(Cn2nc3ccc(S(=O)(=O)N4CCCCCC4)cn3c2=O)cc1 — higher, 1010 s
- Oc1ccc(Cc2ccccc2Cl)c(O)c1 — higher, 891 s
- Cc1cc(N2CCN(c3ccccn3)CC2)n2nc(-c3ccc(Cl)cc3)c(C)c2n1 — lower, 649 s
- Cc1ccc(CN2CCCn3nc(C(=O)NCCN4CCCCC4)cc3C2=O)cc1 — lower, 631 s
- Cn1nc(-c2nnc(-c3ccc(F)cc3)o2)c2c1CCN(S(=O)(=O)c1ccc3c(c1)CCCC3)C2 — higher, 1090 s
- CCOc1ccccc1-c1noc(Cn2c(=O)n(-c3ccc(OC)cc3)c(=O)c3sccc32)n1 — higher, 962 s
- Cc1cc2nc(C(F)(F)F)c(=O)n(C(C)C(=O)NCCN(C)C)c2cc1C (centres undefined) — lower, 695 s
- CCCCCn1c(=O)c2ccccc2n(Cc2nc(-c3cccc(OC)c3)no2)c1=O — higher, 1130 s
- CS(=O)(=O)Nc1ccc2c(c1)C(=O)Nc1cc(Cl)ccc1O2 — lower, 738 s
- N#Cc1ccc(S(=O)(=O)N2CCC(Cc3nc(-c4cccnc4)n[nH]3)C2)cc1 (centres undefined) — lower, 634 s
- COc1cccc(Cn2nc(-c3nc(-c4ccc(F)cc4)no3)ccc2=O)c1 — higher, 1060 s
- COc1cc(OC)c(NC(=O)NC2(c3nc(C)no3)CCCCC2)cc1Cl — lower, 858 s
- COc1ccc(CC(=O)N2CCCC2c2cc(C(C)C)on2)cc1 (centres undefined) — lower, 868 s
- CCCN1CCN(c2cc(C(=O)O)c3cc(NS(=O)(=O)c4cc(C)c(C)cc4C)ccc3n2)CC1 — lower, 653 s
- O=C(Cn1ccc2sccc2c1=O)Nc1cccc(C(F)(F)F)c1 — lower, 834 s
- COc1ccc(-c2nnc(COc3ccc(NC(=O)c4cccnc4)cc3)o2)cc1 — lower, 711 s
- CCc1cccc(C)c1NC(=O)Cn1c(CC)nc2c(c1=O)CN(Cc1ccccc1)CC2 — lower, 677 s
- Cc1cc(C)cc(NC(=O)C2CCc3nc(N4CCOCC4)ncc3C2)c1 (centres undefined) — lower, 848 s
- CC(C)NC(=O)NCCC1CCN(S(=O)(=O)c2ccc(F)cc2)CC1 — lower, 782 s
- CCOC(=O)c1nc(Nc2cc(C)ccc2C)c2ccccc2n1 — lower, 870 s
- CCn1c(=O)c(N2CCCC(C(=O)N3CCN(C(=O)c4ccco4)CC3)C2)nc2ccccc21 (centres undefined) — lower, 832 s
- COc1ccc(N2C(=O)CN(Cc3ccccc3C)[C@H]3CS(=O)(=O)C[C@H]32)cc1Cl — lower, 879 s
- O=S(=O)(Cc1ccccc1)N1CCCC(Cc2noc(-c3ccccc3)n2)C1 (centres undefined) — higher, 1050 s
- O=C(NC1CCCCCC1)C1CCN(c2cncnc2N2CCOCC2)CC1 — lower, 635 s
- O=C(CCn1c(=O)oc2ccccc21)Nc1ccc(S(=O)(=O)Nc2nccs2)cc1 — lower, 650 s
- Cc1ccc(Nc2ncccc2S(N)(=O)=O)cc1F — lower, 863 s
- CCc1nc(-c2csc(S(=O)(=O)N3CCC(C(=O)Nc4ccc(C(C)C)cc4)CC3)c2)no1 — higher, 1140 s
- Cc1cccc(-c2nc(Nc3ccc(C(=O)O)cc3)c3ccccc3n2)c1 — lower, 689 s
- N#Cc1cccc(-c2cn3c(n2)N(C(=O)c2cccc(F)c2)CCC3)c1 — lower, 749 s
- Cc1ccc(NC(=O)C2CCN(C(=O)c3ncn4c3COC(c3ccccc3)C4)CC2)cc1C (centres undefined) — lower, 796 s
- O=S(=O)(Nc1ccc(Br)cn1)c1ccccc1 — lower, 780 s
- Cc1cccc(CNC(=O)C2CCCN(c3nnc(C)c4c(C)n(-c5ccccc5)nc34)C2)c1 (centres undefined) — lower, 745 s
